“Also recorded” adds a separate entry of the source.
Assays:
[1] = tested on: S. maltophilia; assay: microbe, parasite or virus in culture; assay type: cell-based, Stenotrophomonas maltophilia; conditions: for MIC of the β-lactam alone (−): no inhibitor
Procedure: S. maltophilia clinical isolates were K279a, a well characterised isolate from Bristol, UK, or were obtained from the SENTRY antimicrobial resistance survey, as previously reported. […] All growth media were from Oxoid. Chemicals were from Sigma, unless otherwise stated.
Susceptibility to β-lactams in bacterial isolates was determined using the CLSI microtitre minimum inhibitory concentration (MIC) methodology with Muller-Hinton Broth using 96 well plates (Corning, Costar). The MIC was determined as the lowest concentration of β-lactam required to entirely suppress growth. Inhibitor concentrations were kept constant at 2 mg/L or 10 mg/L in all assays. Interpretation of susceptibility/resistance was by reference to CLSI clinical breakpoints for S. maltophilia (ceftazidime) and for Pseudomonas aeruginosa (for aztreonam and meropenem, since no S. maltophilia breakpoints are available).

[2] = target: L2 (class A ESBL) (Stenotrophomonas maltophilia (Pseudomonas maltophilia) (Xanthomonas maltophilia), UniProt P96465); assay: Steady-state hydrolysis of β-lactams by purified L2; assay type: biochemical, S. maltophilia
Excerpt: (§1) As a prelude to investigation the effects of β-lactamase inhibitors, the hydrolysis of a range of candidate β-lactams in vitro by purified L1 (class B3 MBL) and L2 (class A ESBL) under steady state conditions were investigated.

[3] = target: L1 (class B3 MBL) (Stenotrophomonas maltophilia (Pseudomonas maltophilia) (Xanthomonas maltophilia), UniProt P52700); assay: Steady-state hydrolysis of β-lactams by purified L1; assay type: biochemical, S. maltophilia
Excerpt: as §1

[4] = target: BlaC (Mycobacterium tuberculosis (strain ATCC 25618 / H37Rv), UniProt P9WKD3); assay: BlaC inhibition assay (FC5 hydrolysis, fluorescence); assay type: biochemical
Procedure: Recombinant BlaC, with an N-terminal His-tag, was produced in E. coli BL21(DE3) cells using auto-induction medium supplemented with 50 μg mL^−1 ampicillin. Cells were grown for four hours at 37° C. before cooling to 18° C. and continuing growth overnight. Cells were harvested by centrifugation (10 min, 10000 g).
FC5 was stored as a 2.5 mM solution in assay buffer supplemented with 10% (v/v) DMSO. Fluorescence measurements were made using a PHERAstar multi-mode plate reader (BMG Labtech). All assays were carried out at 25° C. Fluorescence assays were carried out using black 96 well format half area clear® plates (Greiner Bio-One) with a final assay volume of 100 μL. FC5 hydrolysis was followed by fluorescence (λex=380 nm, λem=460 nm) corresponding to the release of the umbelliferone fluorophore. The optimum concentration of enzyme for steady-state measurements was determined by examining the rate of substrate hydrolysis at varied concentrations of enzyme, with the concentration at which the initial rate remained constant for 5-10 min being selected as an appropriate enzyme concentration. Initial rates of substrate hydrolysis were determined at varying substrate concentrations. Steady-state kinetic parameters were determined by fitting of initial rates to the Michaelis-Menten equation using GraphPad Prism 5 software.
Inhibition assays were performed by monitoring the initial rate of FC5 hydrolysis via fluorescence at a range of inhibitor concentrations. Inhibitors were stored either as solids or as 100 mM stock solutions in DMSO, these were diluted to appropriate concentrations in the assay buffer. Typically inhibition assays were carried out using black 384 well format pclear® plates (Griener Bio-One) with a final assay volume of 25 μL. Enzyme concentrations were chosen to give a linear rate of FC5 hydrolysis over the first 5 min of the assay time with an FC5 concentration of 5 μM. Components were added in the following order and volumes:
The enzyme was incubated with the inhibitor for 10 min prior to initiation of the reaction by the addition of the substrate. The residual activities were calculated using the following formula:
[formula] IC50 values were calculated by fitting of residual residual activity curves using GraphPad Prism 5 software.

[5] = tested on: L1 β-lactamase production in S. maltophilia K279a; assay: L1 β-lactamase induction by β-lactamase inhibitors (meropenem hydrolysis in cell extracts); assay type: cell-based; conditions: 50 μg.mL^−1 inducer
Procedure: L1 activity was measured from the cell extracts in a 96-well plate reader by determining meropenem hydrolysis (100 μM) at λ=300 nm. Protein concentration was determined by using BioRad protein assay dye reagent. Specific activity was calculated by using the extinction coefficient of 9600 AU/M/cm and a pathlength correction for the microplate ([…]). Data presented are means +/−SEM, n=3.
Cultures were grown overnight using nutrient broth and used to inoculate (1:100 dilution) 10 ml nutrient broth cultures in sealed 30 ml universal bottles. Cultures were incubated for 2 h with shaking at 37° C. before test inducers were added, or not, and culture was continued for 2 h. Cells were pelleted by centrifugation (4,000×g, 10 min) and pellets treated with 100 μL of BugBuster (Ambion), pipetting up and down a few times before rocking for 10 min at room temperature. […] Protein concentration was determined using the BioRad protein assay reagent concentrate according to the manufacturer's instructions. L1 β-lactamase activity was determined using an Omega Fluostar (BMG Biotech) using meropenem as substrate in half-area 96 well UV-translucent plates (Greiner UV-Star. Bio-one) with 200 μl of 100 μM meropenem solution in assay buffer (60 mM Na2HPO4.7H2O pH 7.0, 40 mM NaH2PO4.H2O, 10 mM KCI, 1 mM MgSO4.7H2O, 100 μM ZnCl2) plus 10 μL of cell extract. […]

[6] = target: L2 (Stenotrophomonas maltophilia (Pseudomonas maltophilia) (Xanthomonas maltophilia), UniProt P96465); assay: Inhibition of purified L2, fluorogenic substrate FC5 as reporter
Sequence of L2 (P96465 36-303 limits assumed): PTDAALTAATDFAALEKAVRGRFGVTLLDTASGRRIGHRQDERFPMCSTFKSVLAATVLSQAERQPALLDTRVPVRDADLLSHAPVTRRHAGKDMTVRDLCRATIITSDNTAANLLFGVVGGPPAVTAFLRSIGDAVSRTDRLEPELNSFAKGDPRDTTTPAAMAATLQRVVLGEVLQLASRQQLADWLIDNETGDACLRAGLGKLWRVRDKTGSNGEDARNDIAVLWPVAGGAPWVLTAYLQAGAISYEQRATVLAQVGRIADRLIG
Procedure: Steady state kinetic data were analysed by curve fitting to the Michaeilis-Menten equation using Prism software.

Sequence of L2 (class A ESBL) (P96465 36-303 limits assumed): as above
Sequence of L1 (class B3 MBL) (P52700 whole entry, looked up): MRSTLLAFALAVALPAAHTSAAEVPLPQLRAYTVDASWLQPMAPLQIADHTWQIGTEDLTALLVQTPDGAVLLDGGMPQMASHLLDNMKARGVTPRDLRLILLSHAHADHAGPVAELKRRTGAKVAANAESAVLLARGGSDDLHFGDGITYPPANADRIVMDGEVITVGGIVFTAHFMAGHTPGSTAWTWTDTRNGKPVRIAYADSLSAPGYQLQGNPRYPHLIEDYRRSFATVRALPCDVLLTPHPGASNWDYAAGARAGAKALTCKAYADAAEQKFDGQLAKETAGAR
Sequence of BlaC (P9WKD3 35-307 limits assumed): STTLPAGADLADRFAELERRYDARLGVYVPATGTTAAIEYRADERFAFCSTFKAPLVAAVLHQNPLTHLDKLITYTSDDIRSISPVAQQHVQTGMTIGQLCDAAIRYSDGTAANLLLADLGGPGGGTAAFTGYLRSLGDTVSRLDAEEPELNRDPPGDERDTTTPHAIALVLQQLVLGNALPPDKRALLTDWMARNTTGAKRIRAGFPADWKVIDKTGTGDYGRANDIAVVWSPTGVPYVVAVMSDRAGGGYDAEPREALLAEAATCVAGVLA

## C[C@@H](O)[C@H]1C(=O)N2C(C(=O)O)=C(S[C@@H]3CN[C@H](C(=O)N(C)C)C3)[C@H](C)[C@H]12 [Meropenem]
[1]; CI-20
  MIC of the β-lactam alone (−): 64 mg/L
[1]; CI-29
  MIC of the β-lactam alone (−): 32 mg/L
[1]; CI-31
  MIC of the β-lactam alone (−): 256 mg/L
[1]; K279a
  MIC of the β-lactam alone (−): 8 mg/L
[1]; K AMI 32
  MIC of the β-lactam alone (−): 4 mg/L
[1]; K CAZ 10
  MIC of the β-lactam alone (−): 64 mg/L
[1]; K MOX 8
  MIC of the β-lactam alone (−): 4 mg/L
[2]
  Km: 28.8 µM
  kcat: 0.028 s⁻¹
  kcat/KM: 0.97 (μM^−1 · s^−1) × 10^−3
[3]
  Km: 105 µM
  kcat: 23.8 s⁻¹
  kcat/KM: 227 (μM^−1 · s^−1) × 10^−3
[4]; pre-incubation time 0 min
  pIC50: 5.72 ± 0.06
[4]; pre-incubation time 10 min
  pIC50: 6.41 ± 0.05
[4]; pre-incubation time 60 min
  pIC50: 7.16 ± 0.03

## C[C@@H](O)[C@H]1C(=O)N2C(C(=O)O)=C([C@H]3CCCO3)S[C@H]12 [Faropenem]
[4]; pre-incubation time 0 min
  IC50: 3.72 µM
[4]; pre-incubation time 10 min
  IC50: 2.51 µM
[4]; pre-incubation time 60 min
  IC50: 3.55 µM

## CC(C)(O/N=C(\C(=O)N[C@@H]1C(=O)N2C(C(=O)[O-])=C(C[n+]3ccccc3)CS[C@H]12)c1csc(N)n1)C(=O)O [Ceftazidime]
[1]; CI-20
  MIC of the β-lactam alone (−): 16 mg/L
[1]; CI-29
  MIC of the β-lactam alone (−): 8 mg/L
[1]; CI-31
  MIC of the β-lactam alone (−): 256 mg/L
[1]; K279a
  MIC of the β-lactam alone (−): 4 mg/L
[1]; K AMI 32
  MIC of the β-lactam alone (−): 2 mg/L
[1]; K CAZ 10
  MIC of the β-lactam alone (−): 64 mg/L
[1]; K MOX 8
  MIC of the β-lactam alone (−): 4 mg/L
[2]
  Km: 548 µM
  kcat: 1.88 s⁻¹
  kcat/KM: 3.4 (μM^−1 · s^−1) × 10^−3
[3]
  Km: 260 µM
  kcat: 1.67 s⁻¹
  kcat/KM: 6.4 (μM^−1 · s^−1) × 10^−3

## O=C(O)[C@H]1/C(=C/CO)O[C@@H]2CC(=O)N21 [Clavulanic acid]
[5]
  induction of L1 production (in words): induced L1 production
[1]; CI-20, inhibitor at 2 mg/L
  MIC of aztreonam in the presence of the β-lactamase inhibitor: 4 mg/L
  MIC of ceftazidime in the presence of the β-lactamase inhibitor: 16 mg/L
  MIC of meropenem in the presence of the β-lactamase inhibitor: 32 mg/L
[1]; CI-29, inhibitor at 2 mg/L
  MIC of aztreonam in the presence of the β-lactamase inhibitor: 1 mg/L
  MIC of ceftazidime in the presence of the β-lactamase inhibitor: 4 mg/L
  MIC of meropenem in the presence of the β-lactamase inhibitor: 16 mg/L
[1]; CI-31, inhibitor at 2 mg/L
  MIC of aztreonam in the presence of the β-lactamase inhibitor: 2 mg/L
  MIC of ceftazidime in the presence of the β-lactamase inhibitor: 128 mg/L
  MIC of meropenem in the presence of the β-lactamase inhibitor: 256 mg/L
[1]; K279a, inhibitor at 2 mg/L
  MIC of aztreonam in the presence of the β-lactamase inhibitor: 1 mg/L
  MIC of ceftazidime in the presence of the β-lactamase inhibitor: 4 mg/L
  MIC of meropenem in the presence of the β-lactamase inhibitor: 32 mg/L
[1]; K AMI 32, inhibitor at 2 mg/L
  MIC of aztreonam in the presence of the β-lactamase inhibitor: 0.5 mg/L
  MIC of ceftazidime in the presence of the β-lactamase inhibitor: 1 mg/L
  MIC of meropenem in the presence of the β-lactamase inhibitor: 8 mg/L
[1]; K CAZ 10, inhibitor at 2 mg/L
  MIC of aztreonam in the presence of the β-lactamase inhibitor: 0.5 mg/L
  MIC of ceftazidime in the presence of the β-lactamase inhibitor: 8 mg/L
  MIC of meropenem in the presence of the β-lactamase inhibitor: 8 mg/L
[1]; K MOX 8, inhibitor at 2 mg/L
  MIC of aztreonam in the presence of the β-lactamase inhibitor: 0.25 mg/L
  MIC of ceftazidime in the presence of the β-lactamase inhibitor: 1 mg/L
  MIC of meropenem in the presence of the β-lactamase inhibitor: 8 mg/L
[1]; inhibitor at 2 mg/L, β-lactam and strain named in the value
  ability to potentiate β-lactams / reverse resistance (in words): does not reduce the MIC of ceftazidime against S. maltophilia K279a; also recorded: reduces the aztreonam MIC against K279a
[6]; IC50, purified L2, FC5 substrate
  IC50: 22.3 nM
[6]; pIC50, purified L2, FC5 substrate
  IC50: 38.9 nM

— patent US11980631B2, “β-lactamase inhibitors” (priority 2017, dated 2024)
